Assay results published in the supplement of paper PMC11451515.

System: P12-Ichikawa
Assay: cell viability relative to DMSO control; higher = less cytotoxic
Conditions: 48 h
How it was run: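 Viability is expressed as a percentage of DMSO wells within each plate, and cell-free wells serve as background. Seeding densities in the 1536-well plates (5 μl) were 500 cells/well for NOMO1 or SEM leukemia cells and 1000 cells/well for P12-Ichikawa. Each line was adapted for at least four passages in each medium. Library compounds in DMSO were pin-dosed at 47 μM to 0.79 nM (11 points, threefold), and CellTiter-Glo One luminescence was read after 48 h at 37°C.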

[1] = HPLM + 10% dialyzed FBS, 0.000781 µM
[2] = HPLM + 10% dialyzed FBS, 0.00234 µM
[3] = HPLM + 10% dialyzed FBS, 0.00702 µM
[4] = HPLM + 10% dialyzed FBS, 0.0211 µM
[5] = HPLM + 10% dialyzed FBS, 0.0632 µM
[6] = HPLM + 10% dialyzed FBS, 0.19 µM
[7] = HPLM + 10% dialyzed FBS, 0.569 µM
[8] = HPLM + 10% dialyzed FBS, 1.71 µM
[9] = HPLM + 10% dialyzed FBS, 5.12 µM
[10] = HPLM + 10% dialyzed FBS, 15.4 µM
[11] = HPLM + 10% dialyzed FBS, 46.1 µM
[12] = RPMI 5 mM glucose + 10% dialyzed FBS, 0.000781 µM
[13] = RPMI 5 mM glucose + 10% dialyzed FBS, 0.00234 µM
[14] = RPMI 5 mM glucose + 10% dialyzed FBS, 0.00702 µM
[15] = RPMI 5 mM glucose + 10% dialyzed FBS, 0.0211 µM
[16] = RPMI 5 mM glucose + 10% dialyzed FBS, 0.0632 µM
[17] = RPMI 5 mM glucose + 10% dialyzed FBS, 0.19 µM
[18] = RPMI 5 mM glucose + 10% dialyzed FBS, 0.569 µM
[19] = RPMI 5 mM glucose + 10% dialyzed FBS, 1.71 µM
[20] = RPMI 5 mM glucose + 10% dialyzed FBS, 5.12 µM
[21] = RPMI 5 mM glucose + 10% dialyzed FBS, 15.4 µM
[22] = RPMI 5 mM glucose + 10% dialyzed FBS, 46.1 µM
[23] = RPMI 5 mM glucose + 10% FBS, 0.000781 µM
[24] = RPMI 5 mM glucose + 10% FBS, 0.00234 µM
[25] = RPMI 5 mM glucose + 10% FBS, 0.00702 µM
[26] = RPMI 5 mM glucose + 10% FBS, 0.0211 µM
[27] = RPMI 5 mM glucose + 10% FBS, 0.0632 µM
[28] = RPMI 5 mM glucose + 10% FBS, 0.19 µM
[29] = RPMI 5 mM glucose + 10% FBS, 0.569 µM
[30] = RPMI 5 mM glucose + 10% FBS, 1.71 µM
[31] = RPMI 5 mM glucose + 10% FBS, 5.12 µM
[32] = RPMI 5 mM glucose + 10% FBS, 15.4 µM
[33] = RPMI 5 mM glucose + 10% FBS, 46.1 µM

Structure (SMILES): COC1=CC2=C(C=C1CC3=C(F)C(=CC=C3)Cl)C(=O)\C(=C/N2[C@H](CO)C(C)C)C(O)=O
- cell viability [1]: 125%
- cell viability [2]: 123%
- cell viability [3]: 122%
- cell viability [4]: 107%
- cell viability [5]: 121%
- cell viability [6]: 119%
- cell viability [7]: 114%
- cell viability [8]: 115%
- cell viability [9]: 110%
- cell viability [10]: 95.9%
- cell viability [11]: 13.4%
- cell viability [12]: 116%
- cell viability [13]: 125%
- cell viability [14]: 124%
- cell viability [15]: 117%
- cell viability [16]: 125%
- cell viability [17]: 121%
- cell viability [18]: 119%
- cell viability [19]: 112%
- cell viability [20]: 103%
- cell viability [21]: 67.3%
- cell viability [22]: 10%

Structure (SMILES): CC(C)(OCc1nn(Cc2ccccc2)c2ccccc12)C(=O)O
- cell viability [1]: 104%
- cell viability [2]: 101%
- cell viability [3]: 101%
- cell viability [4]: 104%
- cell viability [5]: 102%
- cell viability [6]: 96%
- cell viability [7]: 103%
- cell viability [8]: 101%
- cell viability [9]: 101%
- cell viability [10]: 96.3%
- cell viability [11]: 105%
- cell viability [23]: 99.3%
- cell viability [24]: 92.4%
- cell viability [25]: 104%
- cell viability [26]: 95.9%
- cell viability [27]: 101%
- cell viability [28]: 88.6%
- cell viability [29]: 98.6%
- cell viability [30]: 94.9%
- cell viability [31]: 96.2%
- cell viability [32]: 92.8%
- cell viability [33]: 94.5%
- cell viability [12]: 97.1%
- cell viability [13]: 89.1%
- cell viability [14]: 95.8%
- cell viability [15]: 90.1%
- cell viability [16]: 92.6%
- cell viability [17]: 84.6%
- cell viability [18]: 87.9%
- cell viability [19]: 89.3%
- cell viability [20]: 88.8%
- cell viability [21]: 85.8%
- cell viability [22]: 85%

Structure (SMILES): CC(=O)O[C@@]12CO[C@@H]1C[C@H](O)[C@]3(C)[C@@H]2[C@H](OC(=O)C4=CC=CC=C4)[C@]5(O)C[C@H](O)/C(=C(/[C@@H](O)C3=O)C5(C)C)C
- cell viability [1]: 97.5%
- cell viability [2]: 106%
- cell viability [3]: 72.1%
- cell viability [4]: 115%
- cell viability [5]: 114%
- cell viability [6]: 117%
- cell viability [7]: 120%
- cell viability [8]: 120%
- cell viability [9]: 98.1%
- cell viability [10]: 36.6%
- cell viability [11]: 13.7%
- cell viability [23]: 100%
- cell viability [24]: 110%
- cell viability [25]: 69.7%
- cell viability [26]: 113%
- cell viability [27]: 116%
- cell viability [28]: 119%
- cell viability [29]: 122%
- cell viability [30]: 113%
- cell viability [31]: 88.6%
- cell viability [32]: 28.7%
- cell viability [33]: 7.33%
- cell viability [12]: 100%
- cell viability [13]: 114%
- cell viability [14]: 77.5%
- cell viability [15]: 117%
- cell viability [16]: 113%
- cell viability [17]: 112%
- cell viability [18]: 121%
- cell viability [19]: 119%
- cell viability [20]: 104%
- cell viability [21]: 43.9%
- cell viability [22]: 18.5%

Structure (SMILES): COC(=O)[C@@H]1CC2=CC(=O)CC[C@]2(C)[C@@]23O[C@@H]2C[C@@]2(C)[C@@H](CC[C@@]24CCC(=O)O4)[C@H]13
- cell viability [1]: 98.1%
- cell viability [2]: 113%
- cell viability [3]: 104%
- cell viability [4]: 106%
- cell viability [5]: 112%
- cell viability [6]: 117%
- cell viability [7]: 117%
- cell viability [8]: 115%
- cell viability [9]: 120%
- cell viability [10]: 121%
- cell viability [11]: 112%
- cell viability [23]: 107%
- cell viability [24]: 109%
- cell viability [25]: 112%
- cell viability [26]: 124%
- cell viability [27]: 123%
- cell viability [28]: 122%
- cell viability [29]: 123%
- cell viability [30]: 127%
- cell viability [31]: 130%
- cell viability [32]: 135%
- cell viability [33]: 128%
- cell viability [12]: 100%
- cell viability [13]: 117%
- cell viability [14]: 115%
- cell viability [15]: 112%
- cell viability [16]: 112%
- cell viability [17]: 115%
- cell viability [18]: 118%
- cell viability [19]: 113%
- cell viability [20]: 117%
- cell viability [21]: 119%
- cell viability [22]: 126%

Structure (SMILES): COc1cc([C@@H]2c3cc4c(cc3[C@@H](O)C3COC(=O)C32)OCO4)cc(OC)c1O (stereo not given in full)
- cell viability [1]: 86.8%
- cell viability [2]: 92.3%
- cell viability [3]: 88.4%
- cell viability [4]: 9.03%
- cell viability [5]: 95.5%
- cell viability [6]: 38.3%
- cell viability [7]: 9.82%
- cell viability [8]: 8.57%
- cell viability [9]: 5.22%
- cell viability [10]: 5.25%
- cell viability [11]: 4.78%
- cell viability [23]: 80.2%
- cell viability [25]: 92.1%
- cell viability [26]: 10.5%
- cell viability [27]: 102%
- cell viability [28]: 56.8%
- cell viability [29]: 14.4%
- cell viability [30]: 7.77%
- cell viability [31]: 6.85%
- cell viability [32]: 4.81%
- cell viability [33]: 5.33%
- cell viability [12]: 77.1%
- cell viability [13]: 91.5%
- cell viability [14]: 94.6%
- cell viability [15]: 22.6%
- cell viability [16]: 94.5%
- cell viability [17]: 63.7%
- cell viability [18]: 19%
- cell viability [19]: 12.9%
- cell viability [20]: 9.44%
- cell viability [21]: 7.81%
- cell viability [22]: 5.82%

Structure (SMILES): CN1C(=O)\C(=C/C2=C1N=C(NC3CCOCC3)N=C2)OC4=C(F)C=C(F)C=C4
- cell viability [1]: 92.5%
- cell viability [2]: 96.2%
- cell viability [3]: 95.4%
- cell viability [4]: 95.3%
- cell viability [5]: 96.9%
- cell viability [6]: 90.2%
- cell viability [7]: 87.5%
- cell viability [8]: 93.2%
- cell viability [9]: 82.6%
- cell viability [10]: 87.2%
- cell viability [11]: 50.7%
- cell viability [23]: 92.3%
- cell viability [24]: 90.3%
- cell viability [25]: 93.5%
- cell viability [26]: 95.2%
- cell viability [27]: 96.1%
- cell viability [28]: 96.6%
- cell viability [29]: 91.8%
- cell viability [30]: 90%
- cell viability [31]: 90.5%
- cell viability [32]: 90.4%
- cell viability [33]: 39.4%
- cell viability [12]: 100%
- cell viability [13]: 94.7%
- cell viability [14]: 90.6%
- cell viability [15]: 87.1%
- cell viability [16]: 96.3%
- cell viability [17]: 99.1%
- cell viability [18]: 93.5%
- cell viability [19]: 86.7%
- cell viability [20]: 79.3%
- cell viability [21]: 81.8%
- cell viability [22]: 35.9%

Structure (SMILES): NC(=O)c1ncn([C@@H]2O[C@H](CO)[C@@H](O)[C@H]2O)c1N
- cell viability [1]: 120%
- cell viability [2]: 124%
- cell viability [3]: 120%
- cell viability [4]: 119%
- cell viability [5]: 122%
- cell viability [6]: 121%
- cell viability [7]: 122%
- cell viability [8]: 117%
- cell viability [9]: 115%
- cell viability [10]: 115%
- cell viability [11]: 104%

Structure (SMILES): CC(=O)OCC(CCn1cnc2cnc(N)nc21)COC(C)=O
- cell viability [1]: 92.3%
- cell viability [2]: 103%
- cell viability [3]: 109%
- cell viability [4]: 106%
- cell viability [5]: 113%
- cell viability [6]: 102%
- cell viability [7]: 108%
- cell viability [8]: 106%
- cell viability [9]: 112%
- cell viability [10]: 110%
- cell viability [11]: 111%
- cell viability [23]: 89.8%
- cell viability [24]: 95%
- cell viability [25]: 103%
- cell viability [26]: 103%
- cell viability [27]: 108%
- cell viability [28]: 97.3%
- cell viability [29]: 102%
- cell viability [30]: 102%
- cell viability [31]: 101%
- cell viability [32]: 106%
- cell viability [33]: 103%
- cell viability [12]: 92.5%
- cell viability [13]: 101%
- cell viability [14]: 98%
- cell viability [15]: 87.9%
- cell viability [16]: 105%
- cell viability [17]: 104%
- cell viability [18]: 97%
- cell viability [19]: 106%
- cell viability [20]: 102%
- cell viability [21]: 103%
- cell viability [22]: 97.3%
